Results reported in patent publication US12208088B2 (Genentech, Inc., priority 2018, dated 2025).

target: HPK1 (Homo sapiens (Human), UniProt Q92918); test: HPK1 Lantha binding assay ("Lanth"); conditions: binding assays; Morrison Ki fit
Procedure, shortened: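 Ki values are from Morrison-equation fitting of 665/615 nm TR-FRET signals, taking enzyme level, tracer level and tracer Kd into account. The assay mix held HPK1 (2 nM), Eu-anti-GST antibody (2 nM) and Tracer222 (15 nM). Incubations were two 1 h steps at 23 °C, on 5-fold serial compound dilutions.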

Chain of HPK1 (Q92918 1-346 limits assumed): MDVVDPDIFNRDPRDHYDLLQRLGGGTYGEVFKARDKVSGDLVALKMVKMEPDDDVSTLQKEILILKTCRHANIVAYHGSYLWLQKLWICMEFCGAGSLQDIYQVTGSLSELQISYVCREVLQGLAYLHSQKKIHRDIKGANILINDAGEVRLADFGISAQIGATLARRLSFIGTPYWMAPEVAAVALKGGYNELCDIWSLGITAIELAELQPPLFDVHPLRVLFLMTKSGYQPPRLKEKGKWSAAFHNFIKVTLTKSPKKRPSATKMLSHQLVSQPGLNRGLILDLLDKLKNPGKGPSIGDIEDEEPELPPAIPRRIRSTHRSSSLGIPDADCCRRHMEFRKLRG

| Ki [nM] | SMILES |
| --- | --- |
| 4.89 | CN(C)C(=O)c1c(N)ccc(-c2cnc3c(c2Cl)[C@]2(CC[C@@H](CO)CC2)CN3)c1F [Compound 248b, 6-Amino-3-((1r,4r)-4′-chloro-4-(hydroxymethyl)-1′,2′-dihydrospiro[cyclohexane-1,3′-pyrrolo[2,3-b]pyridin]-5′-yl)-2-fluoro-N,N-dimethylbenzamide] |
| 4.3 | Cc1c(CC#N)ccnc1-c1cccc(-c2cnc3c(c2Cl)C2(CC=CC2)CN3)c1 [Compound 249, 2-(2-(3-(4′-Chloro-1′,2′-dihydrospiro[cyclopentane-1,3′-pyrrolo[2,3-b]pyridin]-3-en-5′-yl)phenyl)-3-methylpyridin-4-yl)acetonitrile] |
| 41.3 | CN(C)C(=O)c1c(N)ccc(-c2cnc3c(c2Cl)[C@]2(CC[C@@](C)(C#N)CC2)CN3)c1F [Compound 250b, 6-Amino-3-((1r,4r)-4′-chloro-4-cyano-4-methyl-1′,2′-dihydrospiro[cyclohexane-1,3′-pyrrolo[2,3-b]pyridin]-5′-yl)-2-fluoro-N,N-dimethylbenzamide] |
| 3.15 | Cc1c(CC#N)ccnc1-c1cccc(-c2cnc3c(c2)C2(CC2)CN3)c1F [Compound 251, 2-(2-(3-(1′,2′-Dihydrospiro[cyclopropane-1,3′-pyrrolo[2,3-b]pyridin]-5′-yl)-2-fluorophenyl)-3-methylpyridin-4-yl)acetonitrile] |
| 5.94 | Cc1c(CC#N)ccnc1-c1cccc(-c2cnc3c(c2Cl)C2(CC=CC2)CN3)c1F [Compound 252, 2-(2-(3-(4′-Chloro-1′,2′-dihydrospiro[cyclopentane-1,3′-pyrrolo[2,3-b]pyridin]-3-en-5′-yl)-2-fluorophenyl)-3-methylpyridin-4-yl)acetonitrile] |
| 19.9 | CN(C)C(=O)c1c(N)ccc(-c2cnc3c(c2Cl)[C@]2(CC[C@H](C(C)(C)O)CC2)CN3)c1F [Compound 255a, 6-Amino-3-((1s,4s)-4′-chloro-4-(2-hydroxypropan-2-yl)-1′,2′-dihydrospiro[cyclohexane-1,3′-pyrrolo[2,3-b]pyridin]-5′-yl)-2-fluoro-N,N-dimethylbenzamide] |
| 12 | CN(C)C(=O)c1c(N)ccc(-c2cnc3c(c2Cl)[C@]2(CC[C@@H](C(C)(C)O)CC2)CN3)c1F [Compound 255b, 6-Amino-3-((1r,4r)-4′-chloro-4-(2-hydroxypropan-2-yl)-1′,2′-dihydrospiro[cyclohexane-1,3′-pyrrolo[2,3-b]pyridin]-5′-yl)-2-fluoro-N,N-dimethylbenzamide] |
| 11.1 | CN(C)C(=O)c1c(N)ccc(-c2cnc3c(c2Cl)[C@]2(CC[C@@](C)(CO)CC2)CN3)c1F [Compound 256a, 6-Amino-3-((1r,4r)-4′-chloro-4-(hydroxymethyl)-4-methyl-1′,2′-dihydrospiro[cyclohexane-1,3′-pyrrolo[2,3-b]pyridin]-5′-yl)-2-fluoro-N,N-dimethylbenzamide] |
| 53.2 | Cc1cc(CC#N)nn1-c1cccc(-c2cnc3c(c2Cl)C2(CC=CC2)CN3)c1 [Compound 257, 2-(1-(3-(4′-Chloro-1′,2′-dihydrospiro[cyclopentane-1,3′-pyrrolo[2,3-b]pyridin]-3-en-5′-yl)phenyl)-5-methyl-1H-pyrazol-3-yl)acetonitrile] |
| 190 | CN(C)C(=O)c1c(N)ccc(-c2cnc3c(c2Cl)[C@]2(CC[C@@H](CN)CC2)CN3)c1F [Compound 258a, 6-Amino-3-((1r,4r)-4-(aminomethyl)-4′-chloro-1′,2′-dihydrospiro[cyclohexane-1,3′-pyrrolo[2,3-b]pyridin]-5′-yl)-2-fluoro-N,N-dimethylbenzamide] |
| 150 | CN(C)C(=O)c1c(N)ccc(-c2cnc3c(c2Cl)[C@]2(CC[C@H](CN)CC2)CN3)c1F [Compound 258b, 6-Amino-3-((1s,4s)-4-(aminomethyl)-4′-chloro-1′,2′-dihydrospiro[cyclohexane-1,3′-pyrrolo[2,3-b]pyridin]-5′-yl)-2-fluoro-N,N-dimethylbenzamide] |
